In patent US11091806B2, “Genetic markers associated with response to CRTH2 receptor antagonists” (Merck Sharp & Dohme Corp., priority 2015, dated 2021):

Legend:
[1] = test system: asthmatic subjects with persistent symptoms; assay: 17-week randomized, double-blind, placebo-controlled, crossover study of FEV1 in asthmatic subjects receiving montelukast, with pharmacogenetic subgroup analysis; type: in vivo, human; settings: for Estimated mean treatment difference in FEV1 at Week 4 using the new method of analysis, LSMean: Compound A + montelukast vs placebo + montelukast, xdiff=0
Description: FIG. 2 is graphical depiction of the study design. The study was a 17-week randomized, double-blind, placebo-controlled, crossover study with in-house blinding to evaluate the effect of {(7R)-4-fluoro-7-[5-(4-fluorobenzyl)-1H-[1,2,3]triazol-1-yl]-6,7,8,9-tetrahydropyrido[1,2-a]indol-10-yl}-acetic acid (hereinafter “Compound A”) on FEV1 when dosed for 4 weeks in asthmatic subjects with persistent symptoms while receiving montelukast (ML). Overall, 104 patients completed the study. Period I was a pre-study period. Subjects receiving long acting beta-agonists (LABAs) with inhaled corticosteroid (ICS), either separately or as part of a fixed-dose combination, were asked to discontinue the LABA component while still receiving ICS. Period II was a 2- to 4-week run-in period during which subjects receive open-label montelukast (ML) and single-blind placebo (PBO). Subjects receiving ICS or other controllers were required to taper off these medications while receiving montelukast; Period III was a 4-week, double-blind, randomized treatment period during which subjects received either Compound A 150 mg or matching-image placebo while continuing to receive montelukast 10 mg QD; Period IV was a 4-week wash out period during which subjects receive placebo in a single-blind fashion while continuing to receive montelukast 10 mg QD; Period V was a 4-week double-blind period during which subjects were crossed over to the opposite treatment not received during Period III.
The primary efficacy endpoint of the study was forced expiratory volume in 1 second (FEV1) after 4 weeks of dosing, and the study had 85% power to detect a true overall mean treatment difference of 110 mL.
A common analysis for crossover designs with longitudinal measurements in each period uses a linear mixed effects “cell means” model with the clinical measure (here, FEV1) as the dependent variable, and sequence (S=M→P, P→M), treatment (T=M,P), visit (V=0, 2, 4 weeks), and all possible interactions involving S, T, and V as independent variables; M=Compound A+montelukast, P=placebo+montelukast. In addition, to minimize assumptions, a covariance matrix without imposition of any structure (such as compound symmetry) is used to account for the intra-patient correlations among FEV1 responses over time and across the two treatments within each sequence.
This common analysis can be misleading if both of the following conditions are encountered in either crossover sequence: (i) the observed mean difference in baseline means for the two treatments is “far” from zero, and (ii) baseline and post-baseline responses are very strongly correlated (correlation 0.9 or higher). […] Consequently, we analyzed the FEV1 data using an extension of the method of analysis described in Mehrotra D V, Pharmaceutical Statistics 13, 376-387 (2014). This second analytical method is specifically designed for crossover analyses with baseline measurements. To do so, we added “xdiff” (baseline difference between treatments M and P) and interactions between xdiff and all the other fixed effect terms involving S, T, and V to the aforementioned common analysis crossover model; the mean treatment difference at week 4 was estimated at xdiff=0 via the SAS code below.
In the SAS code above, patients with a missing xdiff value are automatically removed from the analysis. To generate results in which all 103 patients are retained in the analysis, missing period 2 baseline FEV1 values (resulting in missing xdiff values, which was the case for ˜20% of the patients due to dropout) were imputed separately in each sequence via a simple linear regression model with the period 2 baseline as the dependent variable and the corresponding period 1 baseline as the independent variable. As noted earlier, the observed correlation between period 1 and period 2 FEV1 baselines was 0.9 in both sequences, providing reassurance that the imputed values for missing period 2 baselines had good reliability. […]

allergic rhinitis = settings: in vivo; cited from earlier work
[2] = test system: patient population afflicted with eosinophilic severe asthma; settings: patients with eosinophilic severe asthma; Phase IIa; cited from earlier work

O=C(O)Cc1c2n(c3c(F)cccc13)C[C@H](n1nncc1Cc1ccc(F)cc1)CC2 [Compound A, {(7R)-4-fluoro-7-[5-(4-fluorobenzyl)-1H-[1,2,3]triazol-1-yl]-6,7,8,9-tetrahydropyrido[1,2-a]indol-10-yl}-acetic acid]
FEV1: Estimated Mean Treatment Difference at Week 4 by Genotype Subgroup for rs12748961, LSMean ([1]; C = 0 (N = 74), no copies of the C allele): 59 mL | FEV1: Estimated Mean Treatment Difference at Week 4 by Genotype Subgroup for rs12748961, LSMean ([1]; C ≥1 (N = 29), one or two copies of the C allele): 268 mL | Estimated mean treatment difference in FEV1 at Week 4 using the new method of analysis, LSMean ([1]; missing period 2 FEV1 baselines imputed: No (N = 85)): 120 mL | Estimated mean treatment difference in FEV1 at Week 4 using the new method of analysis, LSMean ([1]; missing period 2 FEV1 baselines imputed: Yes (N = 103)): 122 mL | Effectiveness in improving FEV1 levels relative to placebo ([1]; after four weeks of treatment in patients who continue to take montelukast as background therapy): notably more effective | Estimated benefit (FEV1) in patients without the C allele of rs12748961 ([1]; remaining 70% of the patients (C = 0)): relatively small

O=C(O)CCn1c2c(c3ccccc31)C[C@H](NS(=O)(=O)c1ccc(F)cc1)CC2 [Ramatroban, 3-((3R)-3-{[(4-fluorophenyl)sulfonyl]amino}-1,2,3,4-tetrahydro-9H-carbazol-9-yl)propanoic acid]
Efficacy in allergic rhinitis (allergic rhinitis): some degree of efficacy

Cc1c(CC(=O)O)c2cccnc2n1Cc1ccc(S(C)(=O)=O)cc1C(F)(F)F [fevipiprant, 2-(2-methyl-1-(4-(methylsulfonyl)-2-(trifluoromethyl)benzyl)-1H-pyrrolo[2,3-b]pyridin-3-yl)acetic acid]
Sputum eosinophils [2]: reduction of sputum eosinophils
